Read-outs that look alike come from different tables or passages of the source. Where a SMILES comes first, the peptide text is derived from it. [ ]: non-standard residue; d: D form. The star is where a group is joined. ξ: configuration not given here. X2 = COc1ccc2c3c1OC1C(O*)=CCC4C(C2)N(C)CCC314; ξL = CC(C)CC(N)C(=O)O
Columns and labels:
[1] = Stability of narcotic conjugates in water (narcotic release, abuse resistance tests); assay type: physicochemical; settings: for H2O (1 h, 90 C.) / H2O (24 h, RT): numbers based upon narcotic release; for % Release of Narcotic in Water: neutral pH
Excerpt: It is also possible to further stabilize any unstable conjugates by tethering to a larger peptide. […] The conjugates are also stable at a wide range of pH's.

male Sprague-Dawley rats = assay: Analgesia by paw lick latency (PLL), hot plate nociceptive model, subcutaneous injection; assay type: in vivo; set-up: Paw Lick Latency: unit not given beside the values; settings: for PLL: rat hot plate, cutoff time of 45 seconds; for Percent: PLL above basal level compared to HC; for Delta: basal PLL of untreated rats subtracted
[2] = intranasal; for Comments (curve) / Peak Time / % AUC / % Cmax: serum, buffer PBS; for Peak Time: multiple of hydrocodone's peak time; for % AUC / % Cmax: vs. hydrocodone
[3] = Pharmacokinetics of peptide-amphetamine conjugates by oral administration (serum amphetamine by ELISA); settings: rat
[4] = Pharmacokinetics of narcotic conjugates by oral administration (serum hydrocodone/oxycodone by ELISA)
[5] = Table 12, 15 min., equivalent dose
[6] = Table 12, 30 min, equivalent dose
[7] = Table 12, Basal (0 h), before treatment
[8] = oral solution in water, equivalent amount of amphetamine
[9] = rat serum, vs. equivalent dose of parent drug

Compound | H2O (1 h, 90 C.) [1] | H2O (24 h, RT) [1] | Paw Lick Latency (male Sprague-Dawley rats; Table 12, 60, equivalent dose) | Paw Lick Latency (male Sprague-Dawley rats; [5]) | Paw Lick Latency (male Sprague-Dawley rats; [6]) | Paw Lick Latency (male Sprague-Dawley rats; [7]) | Comments (curve) [2] | Peak Time [2] [X] | % AUC [2] [%] | % Cmax [2] [%] | also measured
COc1ccc2c3c1OC1C(OC(=O)C(N)CO)=CCC4C(C2)N(C)CCC314 (stereo not drawn) [Ser-HC] | 98 | 45 | – | – | – | – | – | – | – | – | –
COc1ccc2c3c1O[C@H]1C(=O)CC[C@H]4[C@@H](C2)N(C)CC[C@]314 [Hydrocodone] | – | – | 15.1 | 31.9 | 24.5 | 5.6 | Rapid | 1 | 100 | 100 | PLL (male Sprague-Dawley rats; 30 minutes, subcutaneous): 40; Percent (male Sprague-Dawley rats; 30 minutes): 100%; Delta (male Sprague-Dawley rats; 30 minutes): 34; PLL (male Sprague-Dawley rats; 45 minutes, subcutaneous): 26.7; Percent (male Sprague-Dawley rats; 45 minutes): 100%; Delta (male Sprague-Dawley rats; 45 minutes): 19.9; Paw Lick Latency (male Sprague-Dawley rats; Table 11, 15 min., subcutaneous): 25.5; Paw Lick Latency (male Sprague-Dawley rats; Table 11, 30 min, subcutaneous): 42.4; Paw Lick Latency (male Sprague-Dawley rats; Table 11, 45 min., subcutaneous): 36.3; Paw Lick Latency (male Sprague-Dawley rats; Table 11, 60 min., subcutaneous): 26.6; Paw Lick Latency (male Sprague-Dawley rats; Table 11, Basal (0 h), before treatment): 5.5
CC(Cc1ccccc1)NC(=O)[C@@H](N)Cc1ccccc1 (stereo partly drawn) [Phe-Amp] | – | – | – | – | – | – | – | – | – | – | Cmax and AUC compared with those of the parent drug ([3]; oral): nearly equal; AUC 0-12 h [3, 8]: 505 ng·h/mL; Cmax [3, 8]: 175 +/− 77
COc1ccc2c3c1OC1C(OC(=O)C(CC(C)C)NC(=O)CNC(=O)CNC(=O)CNC(=O)CN)=CCC4C(C2)N(C)CCC314 (stereo not drawn) [GGGGL-HC, Gly-Gly-Gly-Gly-Leu-Hydrocodone] (H-GGGG[ξL]-X2) | – | – | 3.6 | 6.8 | 5.6 | 7.5 | – | – | – | – | Paw Lick Latency (male Sprague-Dawley rats; Table 12, 60, 2× the equivalent dose): 5; Paw Lick Latency (male Sprague-Dawley rats; Table 12, 15 min., 2× the equivalent dose): 3; Paw Lick Latency (male Sprague-Dawley rats; Table 12, 30 min, 2× the equivalent dose): 5.6; Paw Lick Latency (male Sprague-Dawley rats; Table 12, Basal (0 h), group given 2× the equivalent dose): 2.2
COc1ccc2c3c1OC1C(OC(=O)C(CC(C)C)NC(=O)C(CC(C)C)NC(=O)C(N)CC(C)C)=CCC4C(C2)N(C)CCC314 (stereo not drawn) [LLL-HC] | – | – | 3.2 | 5.7 | 3.9 | 4.1 | – | – | – | – | –
COc1ccc2c3c1OC1C(OC(=O)C(N)CCC(=O)O)=CCC4C(C2)N(C)CCC314 (stereo not drawn) [Glu-HC, 6-O-Glu-Hydrocodone] | 100 | 79 | – | – | – | – | Flat curve | 6 | 60 | 55 | % Release of Narcotic in Water ([1]; 0 Hours): 0%; % Release of Narcotic in Water ([1]; 1 Hour): 4%; % Release of Narcotic in Water ([1]; 6 Hours): 19%; % Release of Narcotic in Water ([1]; 24 Hours): 42%
COc1ccc2c3c1OC1C(OC(=O)OC[C@H]4OC(O)C(O)[C@H]4O)=CCC4[C@@H](C2)N(C)CC[C@]314.Cl (stereo partly drawn) [Ribose-HC] | – | 4 | – | – | – | – | No change | 1 | 20 | 34 | inhibition of IN absorption ([2]; compound still contained small amounts of free hydrocodone): approximately 80%; Shape of the Curve ([4]; rat serum concentration curve vs. parent drug): No change; Peak Time ([4]; rat serum, multiple of parent drug's peak time): 1X; % AUC [4, 9]: 106%; % Cmax [4, 9]: 132%
COc1ccc2c3c1OC1C(OC(=O)C(C)(C)N)=CCC4C(C2)N(C)CCC314 (stereo not drawn) [Aib-HC] | 45 | 0 | – | – | – | – | – | – | – | – | –
CCC(C)C(N)C(=O)OC1=CCC2C3Cc4ccc(OC)c5c4C2(CCN3C)C1O5 (stereo not drawn) [Ile-HC] | 46 | 16 | – | – | – | – | – | – | – | – | –
COc1ccc2c3c1OC1C(OC(=O)CN)=CCC4C(C2)N(C)CCC314 (stereo not drawn) [Gly-HC, 6-O-Gly-Hydrocodone] | 63 | 26 | – | – | – | – | – | – | – | – | % Release of Narcotic in Water ([1]; 0 Hours): 6%; % Release of Narcotic in Water ([1]; 1 Hour): 8%; % Release of Narcotic in Water ([1]; 6 Hours): 11%; % Release of Narcotic in Water ([1]; 24 Hours): 32%
